The target in test [1] is GST-CBP(1081-1197) bromodomain (Homo sapiens (Human), UniProt Q92793). The test is described as follows: CBP AlphaScreen Assay. As to conditions: binding to biotin-H4(1-21) Ac-K5/8/12/16 peptide. On the procedure:
(§1) Specific binding of the CBP or BRD4 bromodomain to the acetylated peptide derived from the H4 histone substrate (tetra acetylated H4(1-21) Ac-K5/8/12/16) was measured in absence or presence of inhibitors.
(§2) The standard dose response curves were fitted by Genedata Screener software using the variable-slope model: Signal=Signalnegative control+(SignalDMSO control−Signalnegative control)/(1+(IC50/Dose)^Hill slope).
(§3) Only Signal and Dose in the equation were treated as known values.
(In Alpha technology, singlet oxygen from a donor bead excites a nearby acceptor bead.)

The target in test [2] is BRD4(49-170) bromodomain (Homo sapiens (Human), UniProt O60885). The test is described as follows: BRD4 AlphaScreen Assay. The conditions noted are these: binding to biotin-H4(1-21) Ac-K5/8/12/16 peptide. On the procedure:
as §1, §2, §3

SMILES strings stand for the structures.

Chain of GST-CBP(1081-1197) bromodomain (Q92793 1081-1197): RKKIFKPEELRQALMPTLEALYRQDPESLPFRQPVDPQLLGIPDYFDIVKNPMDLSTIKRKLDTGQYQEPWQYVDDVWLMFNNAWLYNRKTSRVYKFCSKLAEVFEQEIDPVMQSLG

As a reminder, the IC50 is the concentration that gives 50% inhibition. Low readings indicate inhibition by little substance, high ones a need for much substance. Regarding `CC(=O)N1CCn2c(C3CCS(=O)(=O)CC3)nc(-c3ccc4c(c3)c(-c3cnn(C)c3)nn4C)c2C1` [Example 14, 1-[3-(1,1-Dioxothian-4-yl)-1-[1-methyl-3-(1-methylpyrazol-4-yl)indazol-5-yl]-6,8-dihydro-5H-imidazo[1,5-a]pyrazin-7-yl]ethanone], the figures for the half-inhibitory concentration (IC50) in test [1] and in test [2] were 286 nM and > 25000 nM, respectively.

Regarding `CNC(=O)N1CCn2c(C3CCC(F)(F)CC3)nc(-c3cccc4cc(-c5ccn(C)n5)ncc34)c2C1` [Example 80, 3-(4,4-difluorocyclohexyl)-N-methyl-1-(3-(1-methyl-1H-pyrazol-3-yl)isoquinolin-8-yl)-5,6-dihydroimidazo[1,5-a]pyrazine-7(8H)-carboxamide], the figures for the IC50 in test [1] and in test [2] were 2 nM and 11900 nM, respectively.

On to `CNC(=O)N1CCn2c(C3CC3)nc(-c3c(F)ccc4cc(C5CCOCC5)ncc34)c2C1` [Example 75, 3-cyclopropyl-1-(7-fluoro-3-(tetrahydro-2H-pyran-4-yl)isoquinolin-8-yl)-N-methyl-5,6-dihydroimidazo[1,5-a]pyrazine-7(8H)-carboxamide], for which the IC50 was 22 nM in test [1] and > 25000 nM in test [2].

On to `CNC(=O)N1CCn2c(C3CC3)nc(-c3c(F)ccc4cc(-c5cnc(C)s5)ncc34)c2C1` [Example 22, 3-Cyclopropyl-1-(7-fluoro-3-(2-methylthiazol-5-yl)isoquinolin-8-yl)-N-methyl-5,6-dihydroimidazo[1,5-a]pyrazine-7(8H)-carboxamide], for which the half-inhibitory concentration (IC50) in test [1] is 3 nM; in test [2], 7060 nM.

`CNC(=O)c1ccc(-c2cc3cccc(-c4nc(C5CC5)n5c4CN(C(=O)NC)CC5)c3cn2)cn1` [Example 17, 3-Cyclopropyl-N-methyl-1-(3-(6-(methylcarbamoyl)pyridin-3-yl)isoquinolin-8-yl)-5,6-dihydroimidazo[1,5-a]pyrazine-7(8H)-carboxamide]: the results for the half-maximal inhibitory concentration (IC50) in test [1] and in test [2] were 1 nM and 5090 nM, respectively.

Turning to `CNC(=O)N1CCn2c(C3CC(F)(F)C3)nc(-c3cccc4cc(-c5cnc(C)s5)ncc34)c2C1` [Example 96, 3-(3,3-difluorocyclobutyl)-N-methyl-1-(3-(2-methylthiazol-5-yl)isoquinolin-8-yl)-5,6-dihydroimidazo[1,5-a]pyrazine-7(8H)-carboxamide], the IC50 in test [1] is 2 nM; in test [2], 5540 nM.

As to `CNC(=O)N1CCn2c(C3CC3)nc(-c3cccc4nc(-c5cn(C)nc5C)c(C(F)(F)F)cc34)c2C1` [Example 101, 3-cyclopropyl-1-(2-(1,3-dimethyl-1H-pyrazol-4-yl)-3-(trifluoromethyl)quinolin-5-yl)-N-methyl-5,6-dihydroimidazo[1,5-a]pyrazine-7(8H)-carboxamide], the concentration for half-maximal inhibition (IC50) in test [1] turned out to be 19 nM; in test [2], 24700 nM.

For the molecule `CNC(=O)N1Cc2c(-c3cccc4cc(-c5cnn(C)c5)ncc34)nc(C3CC3)n2C(C)C1` (centres unmarked) [Example 126, 3-cyclopropyl-N,5-dimethyl-1-(3-(1-methyl-1H-pyrazol-4-yl)isoquinolin-8-yl)-5,6-dihydroimidazo[1,5-a]pyrazine-7(8H)-carboxamide], the results for the half-maximal inhibitory concentration (IC50) in test [1] and in test [2] were 39 nM and 17100 nM, respectively.

Regarding `CNC(=O)N1CCn2c(C3CC3)nc(-c3cccc4cc(C5CCOCC5)ncc34)c2C1` [Example 21, 3-Cyclopropyl-N-methyl-1-(3-(tetrahydro-2H-pyran-4-yl)isoquinolin-8-yl)-5,6-dihydroimidazo[1,5-a]pyrazine-7(8H)-carboxamide], the half-maximal inhibitory concentration (IC50) in test [1] is 20 nM; in test [2], > 25000 nM.

For `CC(=O)N1CCn2c(C3CC3)nc(N3CCCc4cc(-c5ccnc(N6CCOCC6)c5)ccc43)c2C1` [Example 112, 1-(3-cyclopropyl-1-(6-(2-morpholinopyridin-4-yl)-3,4-dihydroquinolin-1(2H)-yl)-5,6-dihydroimidazo[1,5-a]pyrazin-7(8H)-yl)ethan-1-one], the IC50 came to 270 nM in test [1] and 21000 nM in test [2].

For the molecule `COc1ccc(-c2nc(C3CC3)n3c2CN(C(C)=O)CC3)cc1OC` [Example 42, 1-(3-cyclopropyl-1-(3,4-dimethoxyphenyl)-5,6-dihydroimidazo[1,5-a]pyrazin-7(8H)-yl)ethan-1-one], the results for the IC50 in test [1] and in test [2] were 4260 nM and > 25000 nM, respectively.

For the molecule `CC(=O)N1CCn2c(C3CC3)nc(-c3ccnc4c3cc(-c3cnn(C)c3)n4C)c2C1` [Example 29, 1-(3-Cyclopropyl-1-(1-methyl-2-(1-methyl-1H-pyrazol-4-yl)-1H-pyrrolo[2,3-b]pyridin-4-yl)-5,6-dihydroimidazo[1,5-a]pyrazin-7(8H)-yl)ethan-1-one], the values for the IC50 in test [1] and in test [2] were 324 nM and > 25000 nM, respectively.

`CNC(=O)N1CCn2c(C3CCC(F)(F)CC3)nc(-c3c(F)ccc4cc(-c5cnc(C)s5)ncc34)c2C1` [Example 93, 3-(4,4-difluorocyclohexyl)-1-(7-fluoro-3-(2-methylthiazol-5-yl)isoquinolin-8-yl)-N-methyl-5,6-dihydroimidazo[1,5-a]pyrazine-7(8H)-carboxamide]: the IC50 in test [1] was 2 nM; in test [2], > 25000 nM.

For the molecule `CC(=O)N1CCn2c(C3CC3)nc(N3CCCc4cc(-c5c(C)noc5C)ccc43)c2C1` [Example 111, 1-(3-cyclopropyl-1-(6-(3,5-dimethylisoxazol-4-yl)-3,4-dihydroquinolin-1(2H)-yl)-5,6-dihydroimidazo[1,5-a]pyrazin-7(8H)-yl)ethan-1-one], the half-maximal inhibitory concentration (IC50) in test [1] was found to be 1450 nM; in test [2], 10300 nM.

`CC(=O)N1CCn2c(C3CCOC3)nc(-c3cc4c(-c5cnn(C)c5)nn(C)c4cc3F)c2C1` (centres unmarked) [Example 103, 1-(1-(6-fluoro-1-methyl-3-(1-methyl-1H-pyrazol-4-yl)-1H-indazol-5-yl)-3-(tetrahydrofuran-3-yl)-5,6-dihydroimidazo[1,5-a]pyrazin-7(8H)-yl)ethan-1-one]: the results for the half-inhibitory concentration (IC50) in test [1] and in test [2] were 147 nM and > 25000 nM, respectively.

In the case of `CNC(=O)N1CCn2c(C3CCC(F)(F)CC3)nc(-c3cccc4nc(-c5cnn(C)c5)c(C(F)F)cc34)c2C1` [Example 59, 3-(4,4-difluorocyclohexyl)-1-(3-(difluoromethyl)-2-(1-methyl-1H-pyrazol-4-yl)quinolin-5-yl)-N-methyl-5,6-dihydroimidazo[1,5-a]pyrazine-7(8H)-carboxamide], the concentration for half-maximal inhibition (IC50) in test [1] stood at 5 nM; in test [2], 19000 nM.

As for `CC(=O)N1CCn2c(C3CC3)nc(-c3ccc4c(c3)c(-c3c(C)noc3C)nn4C)c2C1` [Example 30, 1-(3-Cyclopropyl-1-(3-(3,5-dimethylisoxazol-4-yl)-1-methyl-1H-indazol-5-yl)-5,6-dihydroimidazo[1,5-a]pyrazin-7(8H)-yl)ethan-1-one], the half-maximal inhibitory concentration (IC50) in test [1] is 1180 nM; in test [2] it was > 25000 nM.

As to `CC(=O)N1CCn2c(C3CC3)nc(-c3ccc4c(c3)c(-c3cn(C)nc3C)nn4C)c2C1` [Example 106, 1-(3-cyclopropyl-1-(3-(1,3-dimethyl-1H-pyrazol-4-yl)-1methyl-1H-indazol-5-yl)-5,6-dihydroimidazo[1,5-a]pyrazin-7(8H)-yl)ethan-1-one], the IC50 in test [1] was 286 nM; in test [2] it was > 25000 nM.

For `CC(=O)N1CCn2c(C3CCN(C)CC3)nc(-c3ccc4c(c3)c(-c3cnn(C)c3)nn4C)c2C1` [Example 54, 1-(1-(1-methyl-3-(1-methyl-1H-pyrazol-4-yl)-1H-indazol-5-yl)-3-(1-methylpiperidin-4-yl)-5,6-dihydroimidazo[1,5-a]pyrazin-7(8H)-yl)ethan-1-one], the concentration for half-maximal inhibition (IC50) in test [1] is 141 nM; in test [2], > 10000 nM.

Turning to `CC(=O)N1CCn2c(C3CCNCC3)nc(-c3ccc4c(c3)c(-c3cnn(C)c3)nn4C)c2C1` [Example 51, 1-(1-(1-methyl-3-(1-methyl-1H-pyrazol-4-yl)-1H-indazol-5-yl)-3-(piperidin-4-yl)-5,6-dihydroimidazo[1,5-a]pyrazin-7(8H)-yl)ethan-1-one], the half-maximal inhibitory concentration (IC50) was 149 nM in test [1] and > 10000 nM in test [2].

As for `CC(=O)N1CCn2c(C3CC3)nc(N3CCCc4cc(-c5cnn(C6CC6)c5)ccc43)c2C1` [Example 108, 1-(3-cyclopropyl-1-(6-(1-cyclopropyl-1H-pyrazol-4-yl)-3,4-dihydroquinolin-1(2H)-yl)-5,6-dihydroimidazo[1,5-a]pyrazin-7(8H)-yl)ethan-1-one], the IC50 in test [1] stood at 148 nM; in test [2] it was 14300 nM.

Turning to `CNC(=O)c1nc(-c2ccc3c(c2)c(-c2cnn(C)c2)nn3C)c2n1CCN(C(C)=O)C2` [Example 31, 7-Acetyl-N-methyl-1-(1-methyl-3-(1-methyl-1H-pyrazol-4-yl)-1H-indazol-5-yl)-5,6,7,8-tetrahydroimidazo[1,5-a]pyrazine-3-carboxamide], the IC50 in test [1] was 611 nM; in test [2], 7470 nM.

In the case of `CNC(=O)N1CCn2c(C3CC3)nc(-c3ccc4c(c3)c(-c3cnn(C)c3)nn4C)c2C1` [Example 105, 3-cyclopropyl-N-methyl-1-(1-methyl-3-(1-methyl-1H-pyrazol-4-yl)-1H-indazol-5-yl)-5,6-dihydroimidazo[1,5-a]pyrazine-7(8H)-carboxamide], the values for the IC50 in test [1] and in test [2] were 15 nM and 7530 nM, respectively.

Take `CNC(=O)N1CCn2c(C3CC(F)(F)C3)nc(-c3cccc4cc(C5CCOCC5)ncc34)c2C1` [Example 85, 3-(3,3-difluorocyclobutyl)-N-methyl-1-(3-(tetrahydro-2H-pyran-4-yl)isoquinolin-8-yl)-5,6-dihydroimidazo[1,5-a]pyrazine-7(8H)-carboxamide]: the IC50 in test [1] is 15 nM; in test [2], 18100 nM.

As to `CNC(=O)N1CCn2c(C3CC3)nc(-c3cccc4nc(N5CC6(COC6)C5)c(C#N)cc34)c2C1` [Example 102, 1-(3-cyano-2-(2-oxa-6-azaspiro[3.3]heptan-6-yl)quinolin-5-yl)-3-cyclopropyl-N-methyl-5,6-dihydroimidazo[1,5-a]pyrazine-7(8H)-carboxamide], the IC50 in test [1] is 19 nM; in test [2], > 25000 nM.

(Values after US11058688B2, “Imidazopiperazine inhibitors of transcription activating proteins” (Board of Regents, The University of Texas System, priority 2018, dated 2021).)
